Results as given in US10786570B2, “Ferritin nanoparticle compositions and methods to modulate cell activity” (The Rockefeller University, priority 2011, dated 2020).

Experiments:
Format in all cases: cell-based
[1] = test system: HEK 293T cells expressing TRPV1^His and Ca2+-dependent human insulin construct; assay: RF dependent insulin gene expression (real-time PCR); details: ruthenium red
Protocol: (§1) RF dependent release of calcium dependent human insulin: 24 h prior to the study, cells were placed in serum free medium at 32° C. to ensure minimal activation of TRPV1 and calcium dependent pathways. On the day of study, cells were preincubated for 30 min in 500 μl PBS or 500 μl of functionalized iron oxide nanoparticles (1 mg/ml) resuspended in PBS. Cells were washed three times in PBS before incubation in 300 μl of calcium imaging buffer at room temperature (control) or in a RF field at room temperature. The supernatant was removed at 15, 30, 45 or 60 min depending on the study, spun to remove cell debris and frozen at −80° C. until assay. For gene expression analysis, cells from the supernatant and cover glass were lysed and the lysate stored at […] until RNA purification. For apoptosis studies, the cells were incubated with functionalized nanoparticles at 1, 2, 4 or 8 mg/ml before RF treatment and immunocytochemistry. For RF dependent time course from stable PC12 cells, cells were left in serum containing medium prior to treatment to more accurately replicate conditions in vivo before performing the studies as described above. Medium was removed for assay at 15 and 30 mins.
(§2) For studies examining the role of TRP channels in RF mediated proinsulin release, ruthenium red (100 μM) was added to the calcium imaging buffer. […]

[2] = test system: HEK 293T cells expressing TRPV1^His and Ca2+-dependent human insulin construct; assay: RF dependent proinsulin release (ELISA)
Protocol: as §1, with “For RF dependent time course from stable PC12 cells, cells were left in serum containing medium prior to treatment to more accurately replicate conditions in vivo before performing the studies as described above. Medium was removed for assay at 15 and 30 mins.” left out
(§3) Assays. Proinsulin was measured in cell supernatants by ELISA (Alpco, Salem, N.H.) according to manufacturer's protocol. Blood glucose was determined using a Breeze 2 glucometer (Bayer; Leverkusen, Germany). […] Plasma levels of human insulin, produced by xenografts, were determined in mouse plasma by human specific ELISA (Alpco).

[3] = test system: HEK 293T cells transfected with TRPV1, BAPTM and calcium dependent human insulin; assay: RF dependent insulin gene expression, dual component system; details: ruthenium red, TRPV1 BAP system
Protocol: as §1, §2

[4] = test system: HEK 293T cells transfected with TRPV1, BAPTM and calcium dependent human insulin; assay: RF dependent proinsulin release, dual component system; details: ruthenium red, TRPV1 BAP system
Protocol: as §1, with “For RF dependent time course from stable PC12 cells, cells were left in serum containing medium prior to treatment to more accurately replicate conditions in vivo before performing the studies as described above. Medium was removed for assay at 15 and 30 mins.” left out
as §3

| Structure (SMILES) | Effect on RF dependent insulin gene expression [1] | Effect on RF dependent proinsulin release ([2]; ruthenium red 100 μM in calcium imaging buffer) | Effect on RF dependent insulin gene expression [3] | Effect on RF dependent proinsulin release [4] | Effect on RF dependent proinsulin release ([2]; Tacrolimus 100 nM, preincubation 24 hours) |
| --- | --- | --- | --- | --- | --- |
| N.N.N.N.N.N.N.N.N.N.N.N.N.N.[Cl-].[Cl-].[Cl-].[Cl-].[Cl-].[Cl-].[O-2].[O-2].[Ru+3].[Ru+3].[Ru+4] [ruthenium red] | blocked | blocked | blocked | blocked |  |
| C=CC[C@@H]1/C=C(\C)C[C@H](C)C[C@H](OC)[C@H]2O[C@@](O)(C(=O)C(=O)N3CCCC[C@H]3C(=O)O[C@H](/C(C)=C/[C@@H]3CC[C@@H](O)[C@H](OC)C3)[C@H](C)[C@@H](O)CC1=O)[C@H](C)C[C@@H]2OC [tacrolimus, Tacrolimus] |  |  |  |  | blocked |
